Test results: patent US8097725B2, “Luminescent indicator dye and optical sensor” (Roche Diagnostics Operations, Inc., priority 2004, dated 2012)

Experiments:
[1] = immobilized in a hydrogel matrix; FIG. 3 in Werner et al.; cited from earlier work
[2] = pH titration of luminescence intensity of the optical sensor disc; assay type: physicochemical
Protocol: The indicator layer casting solution was coated onto a polyester foil (Melinex foil, ICI America) and the solvent was evaporated. The final dry thickness of the indicator layer was approximately 10 μm. Then, the overcoat layer casting solution was coated onto the indicator layer and the solvent was evaporated. The final a dry thickness of the overcoat layer was about 5 μm. Then, a small sensor disc (2.5 cm diameter) was punched out and soaked in buffer for at least 17 h for activation.
Aliquots of solutions A and B were mixed in appropriate rations to obtain eleven pH buffer solutions of pH 2.67, 3.66, 5.41, 6.35, 6.74, 7.28, 7.76, 8.29, 8.78, 9.81, 10.79, respectively. The pHs were determined at 37° C. with a standard glass electrode.
The sensor discs thus obtained were used in the measuring set-up represented schematically in FIG. 2. In FIG. 2, the reference character S denotes a portion of the sensor disc. […]
[formula] L denotes luminescence intensity and Lm denotes maximum luminescence intensity. […] (ON intensity=luminescence intensity of the protonated species (i.e., in FIG. 3 the intensity at pHs<5), OFF intensity=intensity of the deprotonated species (i.e., in FIG. 3 the intensity at pHs>10).

Structure (SMILES) | pK [1] | OFF intensity as percentage of ON intensity ([2]; ON = protonated species (pH<5), OFF = deprotonated species (pH>10)) | pK value ([2]; immobilized on PVP beads dispersed in hydrophilic polymer layer, 37° C., buffers pH 2.67-10.79, least squares fit of intensity vs pH, excitation 480 nm, emission 520 nm cut-off)
CC1=CC(C)=[N+]2C1=C(c1ccc(N(C)C)cc1)c1c(C)cc(C)n1[B-]2(F)F [1,3,5,7-tertramethyl-8-(4-dimethylamino)-4-difluorobora-3a,4a-diaza(s)-indacene] | 3.3 |  | 
O=C(O)c1ccc(CN2C(=O)c3cccc4c(NCCc5cc(Cl)c(O)c(Cl)c5)ccc(c34)C2=O)cc1 [Dye A41] |  | 5% | 7.25
